Like-named read-outs stand apart in the source and are kept apart here.
What was measured:
[1] = biological target: GDP-KRAS G12D (Homo sapiens, UniProt P01116, G12D); test: biochemical
[2] = biological target: GDP-KRAS G12V (Homo sapiens, UniProt P01116, G12V); test: biochemical
[3] = biological target: GppNp-KRAS G12D (Homo sapiens, UniProt P01116, G12D); test: biochemical
[4] = biological target: GppNp-KRAS G12V (Homo sapiens, UniProt P01116, G12V); test: biochemical
[5] = tested on: AsPC-1 cells (K-Ras G12D)
Protocol: (§1) Each of cells in culture medium was plated in TC-treated 96-well plates at a density indicated in Table 4 and incubated in a cell incubator overnight. The next day, each of compounds was diluted in culture medium and added to the plates. After 6 days incubation in cell incubator, the cell viability was detected by CellTiter-Glo® Cell Viability Assay kit (Promega).

[6] = tested on: SW620 cells (K-Ras G12V)
Protocol: as §1

[7] = tested on: SW620 cells (K-Ras G12V); test: Phospho-ERK1/2(THR202/TYR204) HTRF assay, SW620; type: cell-based; details: Homo sapiens, SW-620, 2 hours incubation, read-out: pERK, IC50, SW620
Protocol: Each of cells in culture medium was seeded in 96-well plates at density indicated in Table 4 and put in a cell incubator to incubate overnight. The next day, the culture medium was removed and the compound diluted in assay medium was added in each well. […] 10 μL of cell lysates from the 96-well plates were transferred to a 384-well plate (Greiner) containing 2.5 μL/well HTRF® pre-mixed antibodies (Cisbio 64AERPEH). The plate was incubated 4 hours at 25° C. and read HTRF signals on Tecan Spark multimode microplate reader. The data were analyzed using a 4-parameter logistic model to calculate IC50 values.

Sequence of GppNp-KRAS G12D (P01116 1-169 isoform P01116-2 G12D): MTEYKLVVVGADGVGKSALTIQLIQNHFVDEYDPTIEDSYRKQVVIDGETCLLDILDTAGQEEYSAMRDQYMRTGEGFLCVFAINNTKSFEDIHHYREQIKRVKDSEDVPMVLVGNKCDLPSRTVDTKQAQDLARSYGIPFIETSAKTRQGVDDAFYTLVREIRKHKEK
Sequence of GDP-KRAS G12D (P01116 1-169 isoform P01116-2 G12D): as above
Sequence of GppNp-KRAS G12V (P01116 1-169 isoform P01116-2 G12V): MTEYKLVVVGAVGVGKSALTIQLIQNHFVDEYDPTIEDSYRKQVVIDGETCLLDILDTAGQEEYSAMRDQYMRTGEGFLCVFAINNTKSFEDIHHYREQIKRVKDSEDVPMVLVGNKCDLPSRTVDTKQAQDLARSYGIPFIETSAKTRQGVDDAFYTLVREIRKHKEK
Sequence of GDP-KRAS G12V (P01116 1-169 isoform P01116-2 G12V): as above

Row | Compound | IC50 [1] | IC50 [2] | IC50 [3] | IC50 [4] | IC50 [5] | IC50 [6] | IC50 [7]
1 | C[C@H]1CCOC[C@H]2COc3c(Cl)c(-c4ccc(F)c5sc(N)c(C#N)c45)c(F)c4nc(OC[C@@]56CCCN5C[C@H](F)C6)nc(c34)N21 (atropisomer, axis not shown) [Compound 158A] | 0.996 nM | 0.939 nM | 10.8 nM | 4.93 nM |  |  | 
2 | N#Cc1c(N)sc2c(F)ccc(-c3c(F)c4c5c(nc(OC[C@@]67CCCN6C[C@H](F)C7)nc5c3F)N3CCCOC[C@H]3CO4)c12 (single isomer, unassigned) [Compound 163A] | 301 nM | 423 nM | > 1000 nM | > 1000 nM |  |  | 
3 | C#Cc1c(F)ccc2cc(N)cc(-c3nc4c5c(nc(OC[C@@]67CCCN6C[C@H](F)C7)nc5c3F)N3CC(C)COC[C@H]3CO4)c12 (some centres unmarked) [Compound 16] | 29.7 nM | 15.2 nM | 651 nM | > 1000 nM |  |  | 
4 | C#Cc1c(F)ccc2cc(N)cc(-c3nc4c5c(nc(OC[C@@H]6CCN6CC(F)F)nc5c3F)N3CCCOC[C@H]3CO4)c12 [Compound 23] | 30 nM | 36.2 nM |  |  |  |  | 
5 | C#Cc1c(F)ccc2cc(N)cc(-c3nc4c5c(nc(OC[C@@]67CCCN6C[C@H](F)C7)nc5c3F)N3CCCC(F)(F)C3CO4)c12 (some centres unmarked) [Compound 28] | 13 nM | 18.1 nM |  |  |  |  | 
6 | C#Cc1c(F)ccc2cc(N)cc(-c3nc4c5c(nc(OC[C@@]67CCCN6C[C@H](F)C7)nc5c3F)N3CC(F)COC[C@@H]3CO4)c12 (some centres unmarked) [Compound 29] |  |  |  |  | 620 nM | 158 nM | 
7 | C#Cc1c(F)ccc2cc(N)cc(-c3nc4c5c(nc(OC[C@@]67CCCN6C[C@H](F)C7)nc5c3F)N3CC(C)(O)CC[C@H]3CO4)c12 (some centres unmarked) [Compound 30] |  |  |  |  |  | 436 nM | 
8 | C#Cc1c(F)ccc2cc(N)cc(-c3nc4c5c(nc(OC[C@@]67CCCN6C[C@H](F)C7)nc5c3F)N3[C@H](C)CCOC[C@H]3N4C)c12 [Compound 41] | 5.51 nM | 4.31 nM | 376 nM | > 1000 nM | 1140 nM | 40.1 nM | 
9 | C#Cc1c(F)ccc2cc(N)cc(-c3nc4c5c(nc(OC[C@@]67CCCN6C[C@H](F)C7)nc5c3F)N3C(C(F)F)CCOCC3N4C)c12 (some centres unmarked) [Compound 52] | 2.83 nM | 1.34 nM | 146 nM | 363 nM |  |  | 
10 | C#Cc1c(F)ccc2cc(N)cc(-c3nc4c5c(nc(OC[C@@]67CCCN6C[C@H](F)C7)nc5c3F)N3CCC=CC[C@H]3C4=C)c12 [Compound 67] | 1.72 nM | 1.36 nM | 59.9 nM | 113 nM | 136 nM | 16.2 nM | 8.74 nM
11 | C#Cc1c(F)ccc2cc(N)cc(-c3nc4c5c(nc(OC[C@@]67CCCN6C[C@H](F)C7)nc5c3F)N3CCCOCC3N4C3CC3)c12 (some centres unmarked) [Compound 68] | 2.18 nM | 3.49 nM | 187 nM | 356 nM | 169 nM | 39.3 nM | 5.95 nM
12 | [2H]C1([2H])OCCCN2c3nc(OC[C@@]45CCCN4C[C@H](F)C5)nc4c(F)c(-c5cc(N)cc6ccc(F)c(C#C)c56)nc(c34)N(C)C21 (some centres unmarked) [Compound 76] | 2.84 nM | 1.14 nM | 96.3 nM | 118 nM | 76 nM | 7.86 nM | 2.08 nM
13 | C#Cc1c(F)ccc2cc(N)cc(-c3nc4c5c(nc(OC[C@@]67CCCN6C[C@H](F)C7)nc5c3F)N3CCC(F)CCC3N4C)c12 (some centres unmarked) [Compound 77] | 7.63 nM | 15.1 nM | 177 nM |  | 103 nM |  | 
14 | C#Cc1c(F)ccc2cc(N)cc(-c3nc4c5c(nc(OC[C@@]67CCCN6C[C@H](F)C7)nc5c3F)N3CCCOCC3N4C(C)=O)c12 (some centres unmarked) [Compound 78] | 21.3 nM | 10 nM | > 1000 nM | > 1000 nM |  |  | 
15 | C#Cc1c(F)ccc2cc(N)cc(-c3nc4c5c(nc(OC[C@@]67CCCN6C[C@H](F)C7)nc5c3F)N3CCCC=C(F)C3N4C)c12 (some centres unmarked) [Compound 80] | 10.6 nM | 12.2 nM | 314 nM | > 1000 nM |  |  | 
16 | C#Cc1c(F)ccc2cc(N)cc(-c3nc4c5c(nc(OC[C@@]67CCCN6C[C@H](F)C7)nc5c3F)N3CCC(F)(F)CCC3N4C)c12 (some centres unmarked) [Compound 81] | 78.8 nM | 89.3 nM | > 1000 nM | > 1000 nM |  |  | 
17 | C#Cc1c(F)ccc2cc(N)cc(-c3nc4c5c(nc(OC[C@@]67CCCN6C[C@H](F)C7)nc5c3F)N3CCCC/C(=C/F)C3N4C)c12 (some centres unmarked) [Compound 86] | 10.3 nM | 9.94 nM | > 1000 nM | > 1000 nM |  | 412 nM | 

— patent publication US20260200947A1, “FUSED CYCLIC COMPOUNDS AND USE THEREOF” (Jacobio Pharmaceuticals Co., Ltd., priority 2022, published 2026)
